The results in this text go back to PubChem BioAssay AID1259408 (Genetic Toxicology Data Bank (GENE-TOX), 2018).

This data set concerns GENE-TOX genotoxicity assays, various organisms and cells. Kind of data set: GENE-TOX mutagenicity studies.
Setting [1] is: Species/Cell Type: Salmonella typhimurium (one or more of the five standard strains: TA98, TA100, TA1535, TA1537, and TA1538), Assay Type: Histidine reverse gene mutation, Ames assay, Assay Code: SAL+, Evaluation Type: Evaluation A (Pre-1980).

The source made the active and inactive calls. The rule behind the calls is not given here.

As to `ClC(Cl)Cl`, the mutagenic call by setting is: (Species/Cell Type: Chinese hamster lung (V79) cells, Assay Type: Forward gene mutation at the HPRT or ouabain locus, Assay Code: V79-, Evaluation Type: Evaluation A (Pre-1980)) “inactive; negative”; (Species/Cell Type: Human lymphocytes, Assay Type: Sister-chromatid exchange (SCE) in vitro, Assay Code: SCL+D, Dose Response: With dose response, Evaluation Type: Evaluation B (Post-1980)) “active; positive”; (Species/Cell Type: Human, Assay Type: Sister-chromatid exchange (SCE) in vitro, Assay Code: SC1+D, Dose Response: With dose response, Evaluation Type: Evaluation B (Post-1980)) “active; positive”; (Species/Cell Type: Mammalian polychromatic erythrocytes, Assay Type: Micronucleus test, chromosome aberrations, Assay Code: MNTT, Evaluation Type: Evaluation A (Pre-1980)) “no conclusion”; (Species/Cell Type: Mouse, Sex: Male, Assay Type: Sperm morphology, Assay Code: SPIT, Evaluation Type: Evaluation A (Pre-1980)) “no conclusion”; (Species/Cell Type: Nonhuman, Assay Type: Sister-chromatid exchange (SCE) in vitro, Assay Code: SC2T, Evaluation Type: Evaluation B (Post-1980)) “no conclusion”. The mutagenic call is, setting by setting: (Species/Cell Type: Nonhuman, Assay Type: Sister-chromatid exchange (SCE) in vivo, Assay Code: SC3+D, Dose Response: With dose response, Evaluation Type: Evaluation B (Post-1980)) “active; positive”; (Species/Cell Type: Saccharomyces cerevisiae, Assay Type: Mitotic recombination or gene conversion, Assay Code: YEC+, Evaluation Type: Evaluation A (Pre-1980)) “active; positive”; (Species/Cell Type: Saccharomyces cerevisiae, Assay Type: Mitotic recombination or gene conversion, Assay Code: YEH+, Evaluation Type: Evaluation A (Pre-1980)) “active; positive”; (Species/Cell Type: Saccharomyces cerevisiae, Assay Type: Reverse gene mutation, Assay Code: YER+, Evaluation Type: Evaluation A (Pre-1980)) “active; positive”; (Species/Cell Type: Syrian hamster embryo (SA7/SHE) cells, Assay Type: Cell transformation, viral enhanced, Assay Code: CT7-, Evaluation Type: Evaluation A (Pre-1980)) “inactive; negative”. For the setting “Species/Cell Type: Nonhuman, Assay Type: In vivo carcinogenicity studies, Assay Code: CCG+, Evaluation Type: Evaluation A (Pre-1980)”, the call was “active; positive”.
On to `CCCCCCCC/C=C/CCCCCCCC(=O)OCCOCC(OCCO)C1OCC(OCCO)C1OCCO` (stereo not given), for which the mutagenic call is listed as “no conclusion” (Species/Cell Type: Human lymphocytes, Assay Type: Sister-chromatid exchange (SCE) in vitro, Assay Code: SCLT, Evaluation Type: Evaluation B (Post-1980)) and “no conclusion” (Species/Cell Type: Human, Assay Type: Sister-chromatid exchange (SCE) in vitro, Assay Code: SC1T, Evaluation Type: Evaluation B (Post-1980)).
For `CCCCCCN(N=O)C(N)=O`, the mutagenic call under setting [1] was “active; positive”.
With `CCOP(=S)(OCC)SCSC(C)(C)C`, where the note is “Species/Cell Type: Hordeum vulgare (barley), Assay Type: Chromosome aberrations, Assay Code: HOC+D, Dose Response: With dose response, Evaluation Type: Evaluation A (Pre-1980)”, the mutagenic call was “active; positive”.
For `COC(=O)C1=CCCN(N=O)C1`, the mutagenic call (Species/Cell Type: Drosophila melanogaster, Assay Type: Sex-linked recessive lethal gene mutation, Assay Code: SRLT, Evaluation Type: Evaluation A (Pre-1980)) was “no conclusion”; the mutagenic call (Species/Cell Type: Salmonella typhimurium (one or more of the five standard strains: TA98, TA100, TA1535, TA1537, and TA1538), Assay Type: Histidine reverse gene mutation, Ames assay, Assay Code: SAL+*, Activation: With metabolic activation, Evaluation Type: Evaluation A (Pre-1980)) is “active; positive”.
As for `[Cl][Fe]([Cl])[Cl]`, the mutagenic call (Species/Cell Type: Bacillus subtilis (H17 vs M45), Assay Type: Rec-assay, spot test, DNA effects (bacterial DNA repair), Assay Code: REW-, Evaluation Type: Evaluation A (Pre-1980)) is “inactive; negative”.
As to `COc1cc(N=Nc2ccccc2)ccc1[N+](=O)[O-]`, the mutagenic call under setting [1] was “active; positive”.
